Measured values published in patent US20250263405A1, “HISTONE DEACETYLASE 6 INHIBITOR COMPOUNDS AND USES THEREOF” (VALO HEALTH, INC., priority 2021, published 2025).

Biological target: HDAC6 (Homo sapiens (Human), UniProt Q9UBN7)
Test: HDAC6 TR-FRET displacement assay
Format: binding
Settings: displacement of fluorescein labeled tracer from HDAC6; 2 nM HDAC6, 1 nM tracer, 0.5 nM Tb-anti-GST antibody; 30 min pre-incubation, 6 hours at 25° C.
Text: HDAC6 and Tb-anti-GST antibody were purchased from Signal Chem (cat #PC124) and Cisbio (cat #61GSTTAH), respectively. HEPES, pH 7.5 was purchased from Teknova (Cat #H1575). All other buffer components, NaCl (cat #S5150), KCl (cat #60121), Triton X-100 (cat #T9284), GSH (cat #G4251), BGG (cat #G5009), and BSA (cat #A2153) were purchased from SIGMA.
Displacement of fluorescein labeled tracer 2-(6-hydroxy-3-oxo-3H-xanthen-9-yl)-5-({[5-(4-{[7-(hydroxycarbamoyl)-2H,3H,4H,5H-thieno[2,3-f][1,4]oxazepine-4-carbonyl]amino}phenoxy)pentyl]carbamothioyl}amino)benzoic acid from HDAC6 was measured in vitro using a TR-FRET assay. The assays were performed in 1536-well plates in a total volume of 6 μL in assay buffer consisting of 50 mM HEPES pH 7.5, 50 mM NaCl, 50 mM KCl, 0.01% Triton X-100, 0.5 mM GSH, 0.03% BGG, 0.01% BSA.
For concentration response curves (IC50 determination), Compounds were serially diluted 3-fold from 2 mM highest concentration to generate a 10-point concentration gradient. To perform the assay, 30 nL of compound gradient solutions were transferred to the assay plate using the ECHO acoustic dispenser to achieve a final concentration range of 10 μM to 0.000508 uM in 6 μL reaction. 3 μL of HDAC6 in assay buffer were added to the assay plates and pre-incubate at room temp. for 30 mins. After pre-incubation, 3 μL of the tracer and TB-anti-GST antibody mix were added to the assay plates. The final concentrations of HDAC6, tracer, and TB-anti-GST antibody for each assay are 2 nM, 1 nM, and 0.5 nM, respectively. Binding reactions were equilibrated at 25° C. for an additional 6 hours, then read in endpoint mode on the BMG PheraStar (BMG labtech) equipped with a 337-520-490 optical module. The ratio of the 520/490 nm emission was calculated to determine the relative amounts of HDAC6 and tracer complex residue in each well.
The percent inhibition of HDAC6 (IC50) was calculated according to the following equation.
As set forth in Table 1, “A” indicates an HDAC6 IC50 value of less than 200 nM; “B” indicates an HDAC6 IC50 value of greater than or equal to 200 nM and less than 500 nM; and “C” indicates an HDAC6 IC50 value of greater than or equal to 500 nM and less than 5 μM.

Sequence of HDAC6 (Q9UBN7 whole entry): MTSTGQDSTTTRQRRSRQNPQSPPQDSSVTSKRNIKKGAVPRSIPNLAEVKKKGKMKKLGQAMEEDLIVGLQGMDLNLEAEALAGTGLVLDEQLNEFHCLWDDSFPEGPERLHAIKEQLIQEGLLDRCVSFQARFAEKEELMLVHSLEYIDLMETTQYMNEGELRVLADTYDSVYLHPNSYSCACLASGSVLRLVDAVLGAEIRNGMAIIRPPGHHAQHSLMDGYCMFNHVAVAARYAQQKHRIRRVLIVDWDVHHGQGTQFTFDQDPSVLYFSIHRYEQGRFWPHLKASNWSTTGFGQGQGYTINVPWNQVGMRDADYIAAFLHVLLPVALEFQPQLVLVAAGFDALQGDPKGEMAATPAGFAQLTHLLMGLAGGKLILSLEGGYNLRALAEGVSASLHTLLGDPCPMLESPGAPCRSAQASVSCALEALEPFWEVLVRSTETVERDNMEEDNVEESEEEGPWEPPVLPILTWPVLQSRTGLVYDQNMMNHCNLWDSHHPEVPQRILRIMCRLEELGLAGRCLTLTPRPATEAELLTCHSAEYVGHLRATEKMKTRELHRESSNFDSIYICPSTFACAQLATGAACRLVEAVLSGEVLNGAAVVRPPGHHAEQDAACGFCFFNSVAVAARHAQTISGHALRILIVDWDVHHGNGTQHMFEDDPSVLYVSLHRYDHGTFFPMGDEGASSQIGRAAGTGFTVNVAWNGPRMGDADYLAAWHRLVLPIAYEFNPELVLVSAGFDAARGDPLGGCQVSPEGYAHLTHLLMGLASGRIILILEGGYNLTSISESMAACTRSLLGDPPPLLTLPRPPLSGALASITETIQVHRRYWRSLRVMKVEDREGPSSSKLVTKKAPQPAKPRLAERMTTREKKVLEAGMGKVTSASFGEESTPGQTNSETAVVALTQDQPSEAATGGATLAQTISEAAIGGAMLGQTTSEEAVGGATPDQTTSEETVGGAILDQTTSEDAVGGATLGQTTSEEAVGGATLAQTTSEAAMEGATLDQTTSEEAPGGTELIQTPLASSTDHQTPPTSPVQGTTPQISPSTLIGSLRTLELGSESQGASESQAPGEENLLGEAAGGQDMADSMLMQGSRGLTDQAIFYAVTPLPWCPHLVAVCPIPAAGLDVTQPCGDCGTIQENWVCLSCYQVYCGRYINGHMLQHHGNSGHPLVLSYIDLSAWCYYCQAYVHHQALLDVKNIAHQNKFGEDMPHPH

| SMILES | IC50 [nM] |
| --- | --- |
| CC1(C(=O)N2Cc3ccc(-c4noc(C(F)(F)F)n4)cc3OCC23CC3)COC1 [Compound 47, (3-methyloxetan-3-yl)(8-(5-(trifluoromethyl)-1,2,4-oxadiazol-3-yl)-2H-spiro[benzo[f][1,4]oxazepine-3,1′-cyclopropan]-4(5H)-yl)methanone] | 200 to 500 |
| CC(=O)N1CCC(C)(C(=O)N2Cc3c(F)cc(-c4noc(C(F)(F)F)n4)cc3OC[C@@H]2C)CC1 [Compound 48, (S)-1-(4-(6-fluoro-3-methyl-8-(5-(trifluoromethyl)-1,2,4-oxadiazol-3-yl)-2,3,4,5-tetrahydrobenzo[f][1,4]oxazepine-4-carbonyl)-4-methylpiperidin-1-yl)ethan-1-one] | 200 to 500 |
| C[C@H]1COc2cc(-c3noc(C(F)(F)F)n3)cc(F)c2CN1C(=O)c1ccncc1 [Compound 49, (3S)-6-fluoro-3-methyl-4-[(pyridin-4-yl)carbonyl]-8-[5-(trifluoromethyl)-1,2,4-oxadiazol-3-yl]-3,5-dihydro-2H-1,4-benzoxazepine] | 200 to 500 |
| CC1Oc2cc(-c3noc(C(F)(F)F)n3)ccc2CNC1=O (stereo not shown) [Compound 50, 2-methyl-8-[5-(trifluoromethyl)-1,2,4-oxadiazol-3-yl]-4,5-dihydro-2H-1,4-benzoxazepin-3-one] | < 200 |
| FC(F)(F)c1nc(-c2ccc3c(c2)OCCN(c2nc4ccccc4[nH]2)C3)no1 [Compound 51, 4-(1H-benzo[d]imidazol-2-yl)-8-(5-(trifluoromethyl)-1,2,4-oxadiazol-3-yl)-2,3,4,5-tetrahydrobenzo[f][1,4]oxazepine] | < 200 |
| CC1(C(=O)N2CCOc3cc(-c4noc(C(F)(F)F)n4)ccc3C2)COC1 [Compound 52, 4-[(3-methyloxetan-3-yl)carbonyl]-8-[5-(trifluoromethyl)-1,2,4-oxadiazol-3-yl]-3,5-dihydro-2H-1,4-benzoxazepine] | 200 to 500 |
| CC(C)C(=O)N1CCOc2cc(-c3noc(C(F)(F)F)n3)ccc2C1 [Compound 53, 2-methyl-1-{8-[5-(trifluoromethyl)-1,2,4-oxadiazol-3-yl]-3,5-dihydro-2H-1,4-benzoxazepin-4-yl}propan-1-one] | 200 to 500 |
| O=C(C1CCOCC1)N1CCOc2cc(-c3noc(C(F)(F)F)n3)ccc2C1 [Compound 54, 4-[(oxan-4-yl)carbonyl]-8-[5-(trifluoromethyl)-1,2,4-oxadiazol-3-yl]-3,5-dihydro-2H-1,4-benzoxazepine] | 200 to 500 |
| CCN1CCC(C)(C(=O)N2Cc3c(F)cc(-c4noc(C(F)(F)F)n4)cc3OC[C@@H]2C)CC1 [Compound 55, (S)-(1-ethyl-4-methylpiperidin-4-yl)(6-fluoro-3-methyl-8-(5-(trifluoromethyl)-1,2,4-oxadiazol-3-yl)-2,3-dihydrobenzo[f][1,4]oxazepin-4(5H)-yl)methanone] | 200 to 500 |
| CC(C)N1CCC(C)(C(=O)N2Cc3c(F)cc(-c4noc(C(F)(F)F)n4)cc3OC[C@@H]2C)CC1 [Compound 56, (S)-(6-fluoro-3-methyl-8-(5-(trifluoromethyl)-1,2,4-oxadiazol-3-yl)-2,3-dihydrobenzo[f][1,4]oxazepin-4(5H)-yl)(1-isopropyl-4-methylpiperidin-4-yl)methanone] | < 200 |
